From ChEMBL document CHEMBL1201862, “PubChem BioAssay data set” (2004)
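Each compound was tested at five concentrations against cells in 96-well plates for 48 hours. Here, GI50 denotes the concentration required for 50% inhibition of growth.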 Activity calls are given as the source filed them. Cut-off read from the data, not from the text of the source: active = GI50 up to about 1.1 µM and inactive = higher.

What was measured:
Assay in all cases: DTP human tumour cell line panel, 48 h
IGROV-1 = test system: IGROV-1
NCI-H226 = test system: NCI-H226
SK-MEL-5 = test system: SK-MEL-5
UO-31 = test system: UO-31
TK-10 = test system: TK-10
NCI/ADR-RES = test system: NCI/ADR-RES
PC-3 = test system: PC-3
SN12C = test system: SN12C
OVCAR-8 = test system: OVCAR-8
A498 = test system: A498
LOX IMVI = test system: LOX IMVI
SF-268 = test system: SF-268
786-0 = test system: 786-0
M14 = test system: M14
HCT-116 = test system: HCT-116
HT-29 = test system: HT-29
MDA-N = test system: MDA-N
NCI-H522 = test system: NCI-H522
HL-60 = test system: HL-60

Measured: GI50

Cn1c(=O)c2nc(CCCc3ccc([N+](=O)[O-])cc3)[nH]c2n(C)c1=O
inactive: IGROV-1 > 100 µM | NCI-H226 > 100 µM | SK-MEL-5 59.3 µM | UO-31 > 100 µM | TK-10 > 100 µM | NCI/ADR-RES > 100 µM | PC-3 > 100 µM | SN12C > 100 µM | OVCAR-8 > 100 µM | A498 > 100 µM | LOX IMVI > 100 µM | SF-268 > 100 µM | 786-0 > 100 µM | M14 > 100 µM | HCT-116 > 100 µM | HT-29 > 100 µM | MDA-N > 100 µM | NCI-H522 > 100 µM

CCOC(=O)[C@@H](Cc1ccc(CCl)cc1)NC(C)=O
inactive: IGROV-1 23.7 µM | HL-60 27 µM | NCI-H226 28.1 µM | SK-MEL-5 16 µM | UO-31 19.2 µM | TK-10 4.71 µM | NCI/ADR-RES 19.9 µM | PC-3 29 µM | SN12C 24 µM | OVCAR-8 50.8 µM | LOX IMVI 19 µM | SF-268 24 µM | 786-0 19.1 µM | M14 24.8 µM | HCT-116 30.3 µM | HT-29 75.3 µM | MDA-N 19 µM | NCI-H522 17.6 µM

NC(=O)C(=CNC(=S)c1ccncc1)C(N)=O
inactive: IGROV-1 > 100 µM | HL-60 > 100 µM | NCI-H226 > 100 µM | SK-MEL-5 > 100 µM | UO-31 > 100 µM | TK-10 > 100 µM | NCI/ADR-RES > 100 µM | PC-3 > 100 µM | SN12C > 100 µM | OVCAR-8 > 100 µM | LOX IMVI > 100 µM | SF-268 > 100 µM | 786-0 > 100 µM | M14 > 100 µM | HCT-116 > 100 µM | HT-29 > 100 µM | MDA-N > 100 µM | NCI-H522 > 100 µM

CCN(CCO)CC1CCCC2CCCCC21 (stereo not drawn)
inactive: IGROV-1 > 100 µM | NCI-H226 > 100 µM | SK-MEL-5 > 100 µM | UO-31 > 100 µM | TK-10 > 100 µM | NCI/ADR-RES > 100 µM | PC-3 > 100 µM | SN12C > 100 µM | OVCAR-8 > 100 µM | A498 > 100 µM | SF-268 > 100 µM | 786-0 > 100 µM | M14 > 100 µM | HCT-116 > 100 µM | HT-29 > 100 µM | MDA-N > 100 µM | NCI-H522 > 100 µM

CC1CCc2sc3nc4n(c(=O)c3c2C1)CC(C)S4 (stereo not drawn)
inactive: IGROV-1 34.2 µM | NCI-H226 21.8 µM | SK-MEL-5 18.9 µM | UO-31 2.77 µM | TK-10 25.1 µM | NCI/ADR-RES 30.8 µM | PC-3 22.5 µM | SN12C 21.5 µM | OVCAR-8 32.2 µM | LOX IMVI 20.9 µM | SF-268 33.6 µM | 786-0 23.1 µM | M14 25.4 µM | HCT-116 23.3 µM | HT-29 15.8 µM | MDA-N 28.4 µM | NCI-H522 30.9 µM
